What follows are compounds tested against human activated kallikrein enzyme (Homo sapiens, UniProt P03952) (assay: Plasma kallikrein inhibition, fluorogenic PFR-AMC substrate, 500 pM activated kallikrein format). Settings: 500 pM activated kallikrein, 300 uM PFR-AMC, 30 min preincubation, 10 min reaction; read-out: Primary Dose Response Assay: Average EC50.
Assay type: biochemical
Summary of the method: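 Enzyme at 500 pM preincubated 30 min RT with inhibitors in 20 mM Tris pH 7.5, 1 mM EDTA, 150 mM NaCl, 0.1% PEG-400, 0.1% Triton X-100. Reaction started with 300 uM PFR-AMC, run 10 min RT; fluorescence read at 460 nm emission, 380 nm excitation. EC50 reported in ranges.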

human activated kallikrein enzyme, sequence (P03952 391-638 limits assumed): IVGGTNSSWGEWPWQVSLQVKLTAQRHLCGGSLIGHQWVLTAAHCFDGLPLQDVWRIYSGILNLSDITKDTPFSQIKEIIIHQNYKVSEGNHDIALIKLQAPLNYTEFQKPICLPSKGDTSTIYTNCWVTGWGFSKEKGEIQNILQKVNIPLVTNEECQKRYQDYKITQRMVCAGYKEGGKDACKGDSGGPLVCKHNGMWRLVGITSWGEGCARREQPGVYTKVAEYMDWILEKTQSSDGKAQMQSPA
human activated kallikrein enzyme, sequence (P03952 20-390 partner limits assumed): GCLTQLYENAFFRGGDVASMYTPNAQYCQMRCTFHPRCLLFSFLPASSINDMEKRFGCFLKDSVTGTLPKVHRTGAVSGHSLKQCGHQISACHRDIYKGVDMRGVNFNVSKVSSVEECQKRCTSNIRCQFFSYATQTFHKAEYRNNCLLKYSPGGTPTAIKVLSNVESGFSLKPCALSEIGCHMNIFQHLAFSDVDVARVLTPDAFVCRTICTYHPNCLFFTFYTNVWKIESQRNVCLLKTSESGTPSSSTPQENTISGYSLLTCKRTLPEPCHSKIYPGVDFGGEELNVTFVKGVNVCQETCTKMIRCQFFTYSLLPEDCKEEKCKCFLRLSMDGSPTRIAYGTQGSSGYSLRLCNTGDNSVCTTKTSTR

| Compound | EC50 |
| --- | --- |
| Cc1ccnc([C@H]2C[C@@H]2C(=O)Nc2cc(OC(C)c3cn4cc(C5CC5)cc(N5CC(=O)N(C)C5=O)c4n3)c(C)nn2)n1 (stereo partly drawn) [Example 35, (1S,2S)-N-(5-(1-(6-cyclopropyl-8-(3-methyl-2,4-dioxoimidazolidin-1-yl)imidazo[1,2-α]pyridin-2-yl)ethoxy)-6-methylpyridazin-3-yl)-2-(4-methylpyrimidin-2-yl)cyclopropane-1-carboxamide] | < 1 nM |
| CS(=O)(=O)c1nc(NCc2cn3cc(C4CC4)ccc3n2)cc(NC(=O)[C@H]2C[C@@H]2c2cccc(Cl)c2)n1 (racemic) [Example 110, rac-(1S*,2S*)-2-(3-chlorophenyl)-N-(6-(((6-cyclopropylimidazo[1,2-a]pyridin-2-yl)methyl)amino)-2-(methylsulfonyl)pyrimidin-4-yl)cyclopropane-1-carboxamide] | 10 to 100 nM |
| Cc1ccnc([C@H]2C[C@@H]2C(=O)Nc2cc(N[C@H](C)c3cn4cc(C5CC5)cc(N5CC(=O)N(C)C5=O)c4n3)nc(N(C)C)n2)n1 [Example 441, (1S,2S)-N-(6-(((R)-1-(6-cyclopropyl-8-(3-methyl-2,4-dioxoimidazolidin-1-yl)imidazo[1,2-a]pyridin-2-yl)ethyl)amino)-2-(dimethylamino)pyrimidin-4-yl)-2-(4-methylpyrimidin-2-yl)cyclopropane-1-carboxamide] | < 1 nM |
| COc1cc(NCc2cn3cc(C4CC4)ccc3n2)cc(NC(=O)[C@H]2C[C@@H]2c2cccc(Cl)c2)n1 [Example 340, (1S,2S)-2-(3-chlorophenyl)-N-(4-(((6-cyclopropylimidazo[1,2-a]pyridin-2-yl)methyl)amino)-6-methoxypyridin-2-yl)cyclopropane-1-carboxamide] | 1 to 10 nM |
| O=C(Nc1cc(NCc2cn3cc(C4CC4)ccc3n2)ncn1)[C@H]1C[C@@H]1c1cc(F)cc(Cl)c1 (racemic) [Example 46, rac-(1S*,2S*)-2-(3-chloro-5-fluorophenyl)-N-(6-(((6-cyclopropylimidazo[1,2-a]pyridin-2-yl)methyl)amino)pyrimidin-4-yl)cyclopropane-1-carboxamide] | 10 to 100 nM |
| O=C(Nc1cc(NCc2cn3cc(C4CC4)ccc3n2)ncn1)[C@H]1C[C@@H]1c1ccc(F)c(Cl)c1 (racemic) [Example 45, rac-(1S*,2S*)-2-(3-chloro-4-fluorophenyl)-N-(6-(((6-cyclopropylimidazo[1,2-a]pyridin-2-yl)methyl)amino)pyrimidin-4-yl)cyclopropane-1-carboxamide] | 100 to 1000 nM |
| COc1cc(NCc2cn3cc(C4CC4)ccc3n2)cc(NC(=O)[C@H]2C[C@@H]2c2cc(Cl)ccn2)n1 [Example 339, (1S,2S)-2-(4-chloropyridin-2-yl)-N-(4-(((6-cyclopropylimidazo[1,2-a]pyridin-2-yl)methyl)amino)-6-methoxypyridin-2-yl)cyclopropane-1-carboxamide] | 1 to 10 nM |
| CNC(=O)c1cc(C2CC2)cn2cc(CNc3cc(NC(=O)[C@H]4C[C@@H]4c4cccc(Cl)c4)ncn3)nc12 [Example 303, 2-(((6-((1S,2S)-2-(3-chlorophenyl)cyclopropane-1-carboxamido)pyrimidin-4-yl)amino)methyl)-6-cyclopropyl-N-methylimidazo[1,2-a]pyridine-8-carboxamide] | 1 to 10 nM |
| N#Cc1ccc(Cl)cc1[C@@H]1C[C@H]1C(=O)Nc1cc(NCc2cn3cc(C4CC4)ccc3n2)cnn1 (racemic) [Example 102, rac-(1S*,2S*)-2-(5-chloro-2-cyanophenyl)-N-(5-(((6-cyclopropylimidazo[1,2-a]pyridin-2-yl)methyl)amino)pyridazin-3-yl)cyclopropane-1-carboxamide] | 1 to 10 nM |

Now from value to compound:

| EC50 | Compound |
| --- | --- |
| < 1 nM | Cc1ccnc([C@H]2C[C@@H]2C(=O)Nc2nncc(OCc3cn4cc(C5CC5)cc(N5CC(=O)N(C)C5=O)c4n3)n2)n1 [Example 671, (1S,2S)—N-(5-((6-cyclopropyl-8-(3-methyl-2,4-dioxoimidazolidin-1-yl)imidazo[1,2-a]pyridin-2-yl)methoxy)-1,2,4-triazin-3-yl)-2-(4-methylpyrimidin-2-yl)cyclopropane-1-carboxamide] |
| 10 to 100 nM | C[C@H]1[C@H](C(=O)Nc2cc(NCc3cn4cc(C5CC5)ccc4n3)ncn2)[C@H]1c1cccc(Cl)c1 (single isomer, unassigned) [Example 505, (1R*,2R*,3S*)-2-(3-chlorophenyl)-N-(6-(((6-cyclopropylimidazo[1,2-a]pyridin-2-yl)methyl)amino)pyrimidin-4-yl)-3-methylcyclopropane-1-carboxamide] |
| < 1 nM | O=C(Nc1cc(NCc2cn3cc(C4CC4)ccc3n2)ncn1)[C@H]1C[C@@H]1c1nccc(Cl)n1 (racemic) [Example I-177, rac-(1S*,2S*)-2-(4-chloropyrimidin-2-yl)-N-(6-(((6-cyclopropylimidazo[1,2-a]pyridin-2-yl)methyl)amino)pyrimidin-4-yl)cyclopropane-1-carboxamide] |
| 10 to 100 nM | O=C(Nc1cc(NCc2cn3cc(C4CC4)cc(N4CC(F)C4)c3n2)ncn1)[C@H]1C[C@@H]1c1cccc(Cl)c1 [Example I-145, (1S,2S)-2-(3-chlorophenyl)-N-(6-(((6-cyclopropyl-8-(3-fluoroazetidin-1-yl)imidazo[1,2-a]pyridin-2-yl)methyl)amino)pyrimidin-4-yl)cyclopropane-1-carboxamide] |
| 1000 to 6000 nM | O=C(Nc1nccc2c1cnn2Cc1cn2cc(C3CC3)ccc2n1)[C@H]1C[C@@H]1c1cccc(Cl)c1 [Example 584, (1S,2S)-2-(3-chlorophenyl)-N-(1-((6-cyclopropylimidazo[1,2-a]pyridin-2-yl)methyl)-1H-pyrazolo[4,3-c]pyridin-4-yl)cyclopropane-1-carboxamide] |
| 10 to 100 nM | O=C(NCc1cn(Cc2cn3cc(C4CC4)ccc3n2)nn1)[C@H]1C[C@@H]1c1cccc(Cl)c1 (racemic) [Example 588, rac-(1S*,2S*)-2-(3-chlorophenyl)-N-((1-((6-cyclopropylimidazo[1,2-a]pyridin-2-yl)methyl)-1H-1,2,3-triazol-4-yl)methyl)cyclopropane-1-carboxamide] |
| > 6000 nM | O=C([C@H]1C[C@@H]1c1cccc(Cl)c1)N(O)c1cc(NCc2cn3cc(C4CC4)ccc3n2)ncn1 [Example I-175, (1S,2S)-2-(3-chlorophenyl)-N-(6-(((6-cyclopropylimidazo[1,2-a]pyridin-2-yl)methyl)amino)pyrimidin-4-yl)-N-hydroxycyclopropane-1-carboxamide] |
| < 1 nM | Cc1ccnc([C@H]2C[C@@H]2C(=O)Nc2cc(NCc3cn4cc(C5CC5)cc(N5CC(=O)N(C)C5=O)c4n3)n3ncnc3n2)n1 (racemic) [Example 624, rac-(1S*,2S*)—N-(7-(((6-cyclopropyl-8-(3-methyl-2,4-dioxoimidazolidin-1-yl)imidazo[1,2-a]pyridin-2-yl)methyl)amino)-[1,2,4]triazolo[1,5-a]pyrimidin-5-yl)-2-(4-methylpyrimidin-2-yl)cyclopropane-1-carboxamide] |
| 1 to 10 nM | O=C(Nc1cc(NCc2cn3cc(C4CC4)cc(N4CCN(C5CC5)CC4)c3n2)ncn1)[C@H]1C[C@@H]1c1cccc(Cl)c1 [Example I-201, (1S,2S)-2-(3-chlorophenyl)-N-(6-(((6-cyclopropyl-8-(4-cyclopropylpiperazin-1-yl)imidazo[1,2-a]pyridin-2-yl)methyl)amino)pyrimidin-4-yl)cyclopropane-1-carboxamide] |

Reference: patent publication US20240228488A1 (TAKEDA PHARMACEUTICAL COMPANY LIMITED, priority 2021, published 2024)
